From US8431533B2, “GLP-1 fusion peptides, their production and use” (Biocompatibles UK Ltd., priority 2005, dated 2013)
Where two headings read alike, the source gives them in different places. Ends that are not written are not given here.

Experiments:
[1] = biological target: T1, DPPIV (Homo sapiens, UniProt P27487); assay: In vitro plasma stability of GLP1CM peptides (kinetic test method); details: 10% human plasma; for remaining at 9 h, 1 μM: human, pH 7.8; for DT80: time needed to degrade active GLP-1 to 80% of the 0 h value, 1 μM peptide
Target sequence in this assay (P27487 39-766 limits assumed): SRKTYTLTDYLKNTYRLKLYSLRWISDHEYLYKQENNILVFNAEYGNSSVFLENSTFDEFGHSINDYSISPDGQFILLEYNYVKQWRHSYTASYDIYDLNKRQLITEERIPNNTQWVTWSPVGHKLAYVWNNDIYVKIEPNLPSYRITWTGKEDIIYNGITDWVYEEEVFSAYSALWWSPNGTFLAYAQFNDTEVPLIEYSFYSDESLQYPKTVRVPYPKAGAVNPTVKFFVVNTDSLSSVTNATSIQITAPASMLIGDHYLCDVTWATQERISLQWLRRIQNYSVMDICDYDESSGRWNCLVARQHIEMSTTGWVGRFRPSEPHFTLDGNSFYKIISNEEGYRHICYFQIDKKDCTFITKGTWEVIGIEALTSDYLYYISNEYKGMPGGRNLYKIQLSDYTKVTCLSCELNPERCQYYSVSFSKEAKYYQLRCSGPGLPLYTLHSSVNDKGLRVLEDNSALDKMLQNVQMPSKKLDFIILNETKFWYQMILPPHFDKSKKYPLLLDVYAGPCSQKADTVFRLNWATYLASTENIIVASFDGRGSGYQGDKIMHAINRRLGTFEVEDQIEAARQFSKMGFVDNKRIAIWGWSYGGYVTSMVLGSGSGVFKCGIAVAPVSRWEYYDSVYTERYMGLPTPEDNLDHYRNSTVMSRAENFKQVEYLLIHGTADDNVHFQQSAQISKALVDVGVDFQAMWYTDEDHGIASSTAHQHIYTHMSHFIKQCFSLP
Text: (§1) Results are from triplicates in at least two independent experiments.

[2] = biological target: T1, DPPIV
Target sequence in this assay (P27487 39-766 limits assumed): as above
Text: as §1

[3] = biological target: T1, DPPIV; assay: in vitro; details: plasma, pH 7.8
Target sequence in this assay (P27487 39-766 limits assumed): as above
Text: as §1

[4] = biological target: T1, DPPIV; assay: In vitro plasma stability of GLP-1 peptides secreted from human cells; type: in vitro ADME; set-up: human lymphocyte enriched plasma containing dipeptidylpeptidase activity; from tissue; host or cells: human lymphocyte enriched plasma; details: human lymphocyte enriched plasma, 37° C., 3 or 4 hours
Text: HEK293 and hTERT-MSC cells were transiently transfected with constructs, encoding the heterologous stromelysin signal sequence, which is linked to GLP-1 variants encoding the following peptides: […]
Target sequence in this assay (P27487 whole entry): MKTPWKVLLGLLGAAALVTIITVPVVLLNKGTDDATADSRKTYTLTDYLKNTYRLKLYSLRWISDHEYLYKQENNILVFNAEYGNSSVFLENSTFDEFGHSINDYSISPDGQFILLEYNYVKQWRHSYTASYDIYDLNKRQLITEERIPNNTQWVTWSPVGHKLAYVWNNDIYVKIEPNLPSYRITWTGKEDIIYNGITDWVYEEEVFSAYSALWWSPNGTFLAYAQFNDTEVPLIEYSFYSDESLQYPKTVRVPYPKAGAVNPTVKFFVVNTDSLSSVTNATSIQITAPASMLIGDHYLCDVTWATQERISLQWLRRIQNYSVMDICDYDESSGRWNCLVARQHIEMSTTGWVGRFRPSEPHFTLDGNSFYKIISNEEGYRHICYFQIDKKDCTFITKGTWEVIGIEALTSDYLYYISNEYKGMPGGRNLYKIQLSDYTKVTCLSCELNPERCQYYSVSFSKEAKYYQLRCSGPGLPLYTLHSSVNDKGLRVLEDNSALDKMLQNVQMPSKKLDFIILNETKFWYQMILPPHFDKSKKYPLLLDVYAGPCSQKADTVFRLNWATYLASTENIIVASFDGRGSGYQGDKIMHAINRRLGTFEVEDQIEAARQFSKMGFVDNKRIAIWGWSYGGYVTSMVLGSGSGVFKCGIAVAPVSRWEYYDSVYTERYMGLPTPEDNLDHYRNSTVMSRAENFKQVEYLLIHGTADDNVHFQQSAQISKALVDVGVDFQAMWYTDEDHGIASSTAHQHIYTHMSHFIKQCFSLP

[5] = system: BALB/c mice; assay: In vivo study, immunogenicity; details: 5 repeated injections, 70 μg peptide/dose, i.v., over 22 d
Method: The trial was done in BALB/c mice receiving 5 repeated injections (70 μg peptide/dose, i.v.) over 22 d (n=5).
Spleens of the treated and control mice were explanted, T-cells isolated and stimulated with increasing amounts of antigene. Proliferative recall response is measured.

[6] = system: diabetic C57BL/KsJ@Rj-db (db/db) mice; assay: Dose-efficacy study in diabetic mice; type: in vivo
Method: A sixth group was treated with saline only. 7 animals were treated per group. Blood glucose was determined from tail bleeds directly before, 1 hour and 4 hours after injection. […] For every test substance a graph was prepared with the percentage difference of the blood glucose in relation to the start value for the different concentrations. […] Both models are sigmoidal fit models suitable for dose response evaluation.

[7] = system: type II diabetic mice (C57BL/Ks-Lepr^db/db); assay: In vivo bioactivity, blood glucose in type II diabetic mice; details: 5 μg peptide s.c. twice a day, day 2, 4, 7, 10, after overnight fast
Method: 11-week-old type II diabetic mice (C57BL/Ks-Lepr^db/db, Harlan) were treated with 5 μg peptide by subcutaneous injection twice a day at 9 a.m. and 5 p.m. (n=5 per group). Blood glucose was measured before (day 0) and after treatment with GLP^CM peptides (Day 2, 4, 7, 10) at 10 a.m. after an overnight fastening period. Data were presented in relation to blood glucose levels measured at day 0.

[8] = system: C57BL/KsJ@Rj-db (db/db) mice; assay: Long-term treatment of db/db mice; type: in vivo
Method: Blood glucose was measured from a tail bleed after a 12-hour overnight fast 18 hours after s.c. injection of the test substances. […] The serum was analysed for insulin with the Insulin Mouse Ultrasensitive ELISA (Cat.#EIA-3440, DRG).

[9] = In vitro human plasma stability of GLP-1CM peptides; details: 20 ng/ml, 37° C., 3 hours, GLP-1 (Active) ELISA
Text: Dipeptidylpeptidase activity of the plasma was inhibited by an DPP-IV inhibitor (#DPP4, Biotrend).

What does the source list for `CC[C@H](C)[C@H](NC(=O)[C@H](Cc1ccccc1)NC(=O)[C@H](CCC(=O)O)NC(=O)[C@H](CCCCN)NC(=O)[C@H](C)NC(=O)[C@H](C)NC(=O)[C@H](CCC(N)=O)NC(=O)CNC(=O)[C@H](CCC(=O)O)NC(=O)[C@H](CC(C)C)NC(=O)[C@H](Cc1ccc(O)cc1)NC(=O)[C@H](CO)NC(=O)[C@H](CO)NC(=O)[C@@H](NC(=O)[C@H](CC(=O)O)NC(=O)[C@H](CO)NC(=O)[C@@H](NC(=O)[C@H](Cc1ccccc1)NC(=O)[C@@H](NC(=O)CNC(=O)[C@H](CCC(=O)O)NC(=O)[C@H](C)NC(=O)[C@@H](N)Cc1c[nH]cn1)[C@@H](C)O)[C@@H](C)O)C(C)C)C(=O)N[C@@H](C)C(=O)N[C@@H](Cc1c[nH]c2ccccc12)C(=O)N[C@@H](CC(C)C)C(=O)N[C@H](C(=O)N[C@@H](CCCCN)C(=O)NCC(=O)N[C@@H](CCCNC(=N)N)C(=O)NCC(=O)N[C@@H](CCCNC(=N)N)C(=O)N[C@@H](CCCNC(=N)N)C(=O)N[C@@H](CC(=O)O)C(=O)N[C@@H](Cc1ccccc1)C(=O)N1CCC[C@H]1C(=O)O)C(C)C` [CM3-ANA06, reference compound]?
remaining at 9 h, 1 μM [1]: 11%; DT80 ([1]; 37° C.): 0.9 h

With `CC[C@H](C)[C@H](NC(=O)[C@H](Cc1ccccc1)NC(=O)[C@H](CCC(=O)O)NC(=O)[C@H](CCCCN)NC(=O)[C@H](C)NC(=O)[C@H](C)NC(=O)[C@H](CCC(N)=O)NC(=O)CNC(=O)[C@H](CCC(=O)O)NC(=O)[C@H](CC(C)C)NC(=O)[C@H](Cc1ccc(O)cc1)NC(=O)[C@H](CO)NC(=O)[C@H](CO)NC(=O)[C@@H](NC(=O)[C@H](CC(=O)O)NC(=O)[C@H](CO)NC(=O)[C@@H](NC(=O)[C@H](Cc1ccccc1)NC(=O)[C@@H](NC(=O)CNC(=O)[C@H](CCC(=O)O)NC(=O)[C@H](C)NC(=O)[C@@H](N)Cc1c[nH]cn1)[C@@H](C)O)[C@@H](C)O)C(C)C)C(=O)N[C@@H](C)C(=O)N[C@@H](Cc1c[nH]c2ccccc12)C(=O)N[C@@H](CC(C)C)C(=O)N[C@H](C(=O)N[C@@H](CCCCN)C(=O)NCC(=O)N[C@@H](CCCNC(=N)N)C(=O)NCC(=O)N[C@@H](CCCNC(=N)N)C(=O)N[C@@H](CCCNC(=N)N)C(=O)N[C@@H](CC(=O)O)C(=O)N[C@@H](Cc1ccccc1)C(=O)N1CCC[C@H]1C(=O)N[C@@H](CCC(=O)O)C(=O)N[C@@H](CCC(=O)O)C(=O)N[C@H](C(=O)N[C@@H](C)C(=O)O)C(C)C)C(C)C` [CM3-ANA07] as the molecule, how does the DT80 [2] read?
The DT80 was 2.0 h.

What about the remaining at 9 h, 1 μM [3] of the same molecule?
The remaining at 9 h, 1 μM was 37%.

For GLP1(7-37)-IP2-GLP1(7-37) [compound 3], which “resistance to DPP-IV degradation” value [4] is on record?
Its value is “nearly fully stabilised to DPP-IV degradation in vitro”.

Which “resistance to DPP-IV degradation” value [4] does the source give for “GLP-1(7-37) [compound 1, reference compound]” here?
Its value is “inactivated by DPP-IV in a similar way to synthetic GLP-1”.

Which results are given for GLP-1(7-37)-IP2-RR-GLP1(7-37) [CM1]?
toxicity [5]: no toxicity; fall in plasma glucose @1 h ([6]; 1 hour after single s.c. injection of 1.1-3.0 nmol peptide, versus control): 50% ± 14%@1 h; fall in plasma glucose @4 h ([6]; 4 hours after single s.c. injection of 1.1-3.0 nmol peptide, versus control): 0%@4 h; ED50 (plasma glucose) ([6]; single s.c. dose, percentage decrease of blood glucose at 1 h, sigmoidal fit): 0.61 μg/mouse; anti-hyperglycemia effect (blood glucose in relation to day 0) [7]: Best results; anti-hyperglycemia effect (blood glucose in relation to day 0) ([7]; listed as SEQ ID No.:6): anti-hyperglycemia effect; fasted blood glucose level ([8]; 12-hour overnight fast, 18 h after peptide injection): reduced; non fasted blood glucose level compared to control ([8]; 1 h after s.c. peptide injection, 24 nmol/kg): 55%; food consumption ([8]; weekly, 122 day treatment period, compared to the control, p<0.001): significantly lower

Which remaining at 9 h, 1 μM [1] does the source give for “HAEGTFTSDVSSYLEGQAAKEFIAWLVKGRGAADAAAAVAIAAALG [CM3-ANA04]” here?
Its remaining at 9 h, 1 μM is 65%.

What about the DT80 ([1]; 37° C.) of the same molecule?
Its DT80 is 4.7 h.

For “HAEGTFTSDVSSYLEGQAAKEFIAWLVKGRGAADFPEEVAIAEELG [CM3-ANA01]”, which DT80 [2] is on record?
Its DT80 is 12.5 h.

And the “in vitro plasma stability, comparison” value [2]?
Its value is “higher plasma stability than CM3”.

Which “in vitro plasma stability, comparison” value ([1]; 37° C.) does the source give for “HAEGTFTSDVSSYLEGQAAKEFIAWLVKGRGRRDAAAAVAIAEELG [CM3-ANA03]” here?
Its value is “strongly reduced stability compared to CM3”.

What about the remaining at 9 h, 1 μM [1] of the same molecule?
Its remaining at 9 h, 1 μM is 30%.

What about the DT80 ([1]; 37° C.) of the same molecule?
Its DT80 is 1.6 h.

With “HAEGTFTSDVSSYLEGQAAKEFIAWLVKGRGRRDFAEEVAIAEELG [CM3-ANA02]” as the molecule, how does the remaining at 9 h, 1 μM [1] read?
The remaining at 9 h, 1 μM was 65%.

And the DT80 ([1]; 37° C.)?
Its DT80 is 4.5 h.

For “HAEGTFTSDVSSYLEGQAAKEFIAWLVKGRGRRDFPEEVAIAEELG [CM3]”, which DT80 ([1]; 37° C.) is on record?
The DT80 was 4.4 h.

What about the “stability in human plasma in vitro” value [9] of the same molecule?
Its value is “significantly stabilized”.

Which DT80 [2] does the source give for “HAEGTFTSDVSSYLEGQAAKEFIAWLVKGRGRRDFPEEVAIAEELGRRHAC [CM3-ANA09]” here?
Its DT80 is 4.2 h.

What about the remaining at 9 h, 1 μM [3] of the same molecule?
The remaining at 9 h, 1 μM was 60%.

B1: GLP-1(7-37)-IP2-RR-GLP2 (peptide)
chain: HAEGTFTSDVSSYLEGQAAKEFIAWLVKGRGRRDFPEEVAIAEELGRRHADGSFSDEMSTILDNLATRDFINWLIQTKITDKK
What does the source list for B1?
anti-hyperglycemia effect (blood glucose in relation to day 0) [7]: anti-hyperglycemia effect; stability in human plasma in vitro [9]: significantly stabilized
